# System: MDA-MB-231 cells
# Assay: AlamarBlue Cell Viability Assay
# Format: cell-based, human
# Conditions: MDA-MB-231, various concentrations, 24, 48 and 72 hours
# Procedure: The cytotoxic effect of empty PBCA NPs, PBCA NPs with encapsulated cabazitaxel as well as free cabazitaxel was studied on breast cancer cells (MDA-MB-231 cells=human epithelial, mammary adenocarcinoma cell line). AlamarBlueR Cell Viability Assay was used to evaluate cell viability. Cells were seeded in density 5000 cells/200 μl medium for each well. After 3 days old medium was removed from wells and both encapsulated cabazitaxel and free cabazitaxel was diluted in medium and added to the well. Concentration of NPs was ranged from 0.1 ng/ml to 1000 ng/ml. Concentrations of free cabazitaxel was chosen to match the concentrations of cabazitaxel in NPs. Control wells contained cells in growth medium.
# The well plates were incubated for 24, 48 and 72 hours at 37° C. and 5% CO2, before the medium was removed from the well followed by 3 times washing with fresh growth medium. Growth medium containing 10% of alamar Blue assay was added into each well and the plates incubated for another 3 hours at 37° C. and 5% CO2, and the fluorescence intensity measured by microplate reader (excitation/emission at 550/590 nm).
smiles,measurement,value
"CO[C@H]1C(=O)[C@]2(C)[C@@H](OC)C[C@H]3OC[C@@]3(OC(C)=O)[C@H]2[C@H](OC(=O)c2ccccc2)[C@]2(O)C[C@H](OC(=O)[C@H](O)[C@@H](NC(=O)OC(C)(C)C)c3ccccc3)C(C)=C1C2(C)C [free cabazitaxel, cabazitaxel]",response of cell viability to treatment,dose-responsive manner
